Our source for the Activity values is ChEMBL document CHEMBL1151819, “Unprecedented hemiketal cembranolides with anti-inflammatory activity from the soft coral Lobophytum durum” (2009).

Molecules are shown by their SMILES. Active and inactive are the calls of the source. The rule behind the calls is not given here.

In one assay the test system is RAW264.7. Briefly: Antiinflammatory activity in LPS-stimulated mouse RAW264.7 cells assessed as reduction in iNOS protein expression at 10 uM by immunoblot analysis relative to control. It is filed as functional.
Settings: not given
On the set-up: scale not given: the % may be the effect or the level left.
In the case of `C=C1C(=O)O[C@H]2C[C@H]1[C@]1(O)C/C(C)=C/CC/C(C)=C/CC[C@]2(COC(C)=O)O1` (relative stereo) [DURUMHEMIKETALOLIDE C], the Activity worked out at 0%.

As for `C=C1C(=O)O[C@@H]2C[C@H]1[C@]1(O)C/C(C)=C/CC/C(C)=C/CC[C@@]2(CO)O1` (relative stereo) [DURUMHEMIKETALOLIDE A], the Activity was determined as 11%.

Consider `O=C(/C=C/c1ccc(O)c(O)c1)OCCc1ccccc1` [CAFFEIC ACID PHENETHYL ESTER], for which the Activity was 1.5%.

In the case of `C=C1C(=O)O[C@H]2C[C@H]1[C@]1(O)C/C(C)=C/CC/C(C)=C/CC[C@@]2(COC(C)=O)O1` (relative stereo) [DURUMHEMIKETALOLIDE B], the Activity came out at 6.4%.

The next assay relates to RAW264.7. Nature of the assay: Antiinflammatory activity in LPS-stimulated mouse RAW264.7 cells assessed as reduction in COX2 protein expression at 10 uM by immunoblot analysis. The format is functional. Details: scale not given: the % may be the effect or the level left.
Settings: not given
On the technique in general: In western blotting, separated proteins are transferred to a membrane and probed.
Regarding `C=C1C(=O)O[C@H]2C[C@H]1[C@]1(O)C/C(C)=C/CC/C(C)=C/CC[C@]2(COC(C)=O)O1` (relative stereo) [DURUMHEMIKETALOLIDE C], the Activity is on record as 34.7%.

Turning to `C=C1C(=O)O[C@@H]2C[C@H]1[C@]1(O)C/C(C)=C/CC/C(C)=C/CC[C@@]2(CO)O1` (relative stereo) [DURUMHEMIKETALOLIDE A], the Activity is reported as 66.7%.

For the compound `O=C(/C=C/c1ccc(O)c(O)c1)OCCc1ccccc1` [CAFFEIC ACID PHENETHYL ESTER], the Activity worked out at 70.2%.

In the case of `C=C1C(=O)O[C@H]2C[C@H]1[C@]1(O)C/C(C)=C/CC/C(C)=C/CC[C@@]2(COC(C)=O)O1` (relative stereo) [DURUMHEMIKETALOLIDE B], the outcome was inactive.

A further assay has as its system Salmonella enteritidis. Nature of the assay: Antibacterial activity against Salmonella enteritidis ATCC 13076 at 100 ug/disk. It is filed as functional, organism-based. The note with it: Salmonella enterica subsp. enterica serovar Enteritidis.
As to `C=C1C(=O)O[C@H]2C[C@H]1[C@]1(O)C/C(C)=C/CC/C(C)=C/CC[C@]2(COC(C)=O)O1` (relative stereo) [DURUMHEMIKETALOLIDE C], the result was inactive.

Consider `C=C1C(=O)O[C@@H]2C[C@H]1[C@]1(O)C/C(C)=C/CC/C(C)=C/CC[C@@]2(CO)O1` (relative stereo) [DURUMHEMIKETALOLIDE A], for which the outcome was inactive.

Regarding `C=C1C(=O)O[C@H]2C[C@H]1[C@]1(O)C/C(C)=C/CC/C(C)=C/CC[C@@]2(COC(C)=O)O1` (relative stereo) [DURUMHEMIKETALOLIDE B], the outcome was inactive.

Another assay has as its system Human betaherpesvirus 5. Nature of the assay: Inhibition of HCMV endonuclease at 1 mg/mL.
Settings: not given
`C=C1C(=O)O[C@H]2C[C@H]1[C@]1(O)C/C(C)=C/CC/C(C)=C/CC[C@]2(COC(C)=O)O1` (relative stereo) [DURUMHEMIKETALOLIDE C]: the outcome was inactive.

Consider `C=C1C(=O)O[C@@H]2C[C@H]1[C@]1(O)C/C(C)=C/CC/C(C)=C/CC[C@@]2(CO)O1` (relative stereo) [DURUMHEMIKETALOLIDE A], for which the outcome was inactive.

Consider `C=C1C(=O)O[C@H]2C[C@H]1[C@]1(O)C/C(C)=C/CC/C(C)=C/CC[C@@]2(COC(C)=O)O1` (relative stereo) [DURUMHEMIKETALOLIDE B], for which the outcome was inactive.
